{"source": "patent US8735141B2", "about": "“Vermiculture compositions” (M-I L.L.C., priority 2001, dated 2014)", "key": {"[1]": {"assay": "Biodegradability (respiration rate and hydrocarbon loss in a reference moist soil)", "conditions": "base fluids, 1 = most biodegradable", "method": "(§1) Environmental tests were carried out on the base fluids, several muds, and a few samples of mud-coated cuttings before and after treatment in a bioreactor. The tests consisted of the following: (a) biodegradability (respiration rate and hydrocarbon loss in a reference moist soil); (b) phytoxicity (alfalfa seed emergence and root elongation); (c) earthworm survival; (d) springtail survival; and (e) Microtox (IC-50 on bioluminescent bacterium Photobacterium phosporeum).\nBiodegradability and toxicity of Formulations A and N are contrasted with those of typical diesel/CaCl2/barite fluid in Table 4. The leading rate on the test soil in Table 4 was 6% w/w. […] In comparing formulation A with a similar formulation weighted with barite (instead of hematite), biodegradability and toxicity appear to be similar for the two fluids. However, a soil-enhancing iron source is considered desirable for its long-term potential benefits.\nBiodegradability (Respiration rate and hydrocarbon loss in moist soil.)"}, "alfalfa": {"system": "alfalfa", "assay": "Alfalfa phytotoxicity (seed emergence, root elongation, shoot mass)", "format": "in vivo", "conditions": "base fluids; normalized to Control test values of 100", "method": "as §1\nAlfalfa seed emergence and root elongation."}, "[2]": {"assay": "Toxicity of various base fluids, overall rank", "conditions": "1 = least toxic", "method": "as §1\nOne of skill in the art will appreciate that the results of Table 1 indicate that diesel and the branched paraffins are more resistant to rapid biodegradation than the other four fluids."}, "[3]": {"system": "Earthworms (Esenia fetida)", "assay": "Earthworm survival", "format": "in vivo", "conditions": "base fluids", "method": "as §1\nEarthworms (Esenia fetida) toxicity"}}, "data": [{"substance": "Isomerized tetradecene [Isomerized tetradecene C14 (IO)]", "values": [{"measurement": "Biodegradability Rank", "setting": "[1]", "value": 4}, {"measurement": "Alfalfa Phytotoxicity % Root Elongation", "setting": "alfalfa", "value": 144, "unit": "%"}, {"measurement": "Alfalfa Phytotoxicity % Seed Emergence", "setting": "alfalfa", "value": 101, "unit": "%"}, {"measurement": "Toxicity Rank", "setting": "[2]", "value": 4}, {"measurement": "Animal Toxicity % Earthworm Survival", "setting": "[3]", "value": 100, "unit": "%"}]}]}
